One series has as its system female mice, Balb/c. The series can be described thus: In vivo acute oral toxicity (OECD 423). The method, then: (§1) Compound 3e was administered by the oral route (by gavage) in one of four fixed doses (5, 50, 300, 2000 mg/kg) for a given stage of the study. The results allow to classify the compound according to the Globally Harmonised Classification System for Chemical Substances and Mixtures (GHS). In addition, the LD50 cut-off values was determined. According to the figure from the OECD 423 guidelines, a maximum of six test stages can be performed. Three animals (female mice, Balb/c) took part in each stage, and the number of stages depends on the mortality of the animals, which is the final test parameter. The research was carried out on the basis of the agreement of the Local Ethical Committee for animal testing in Łódź No. 56/115 ŁB/2018.
(§2) After quarantine, handling, weighing and labelling, the compound 3e was given in a dose of 300 mg/kg (300 mg/kg is a dose used in the absence of information on the toxicity of the test substance. If 2–3 animals die after using this dose, compound will be given at a lower dose − 50 mg/kg. Last dose 5 mg/kg is used if after a dose of 50 mg/kg also 2–3 animals die. If no death occurs, or death of one animal, the compound is again administered to the stomach in the same dose 300 mg/kg, and […], a dose of 2000 mg/kg of body weight is used). The presence of a substance-dependent mortality of animals exposed at one stage determines the performance of the next stage of the study. After each dose, animals are observed for 14 days. […].

Series [1] can be described thus: In vivo acute oral toxicity (OECD 423). Details: species or system mice. Conditions: female, Balb/c, mouse, in vivo, OECD 423, read-out: LD50 cut-off. The method, then:
as §1, §2

A short description of a further series: LogP assay (RP-HPLC). Conditions: pH 11 mobile phases, read-out: logP Experimental. The format is physicochemical. The method, then: Methanol (POCH) was used as an organic modifier. Demineralised water was purified in our faculty. The methanol and water solution were set at pH 11 using 30 mM Triethylamine (TEA) (Sigma Aldrich). Ten isocratic mobile phases were used in the calibration and assay. The first mobile phase contained 50% methanol solution with 30 mM TEA and 50% water solution with 30 mM TEA. Each subsequent mobile phase contained 5% more methanol solution: the final mobile phase consisted of […] solution mix. The method required uncharged substances to be used during analysis.
These substances were selected on the basis of their structural similarity to the test compounds. The stock solutions contained about 1 mg/ml of calibration compounds or test compounds. The injection concentration was 100 µg/ml, and the injection volume was 7 µl.
A Waters 600 HPLC system was used with a photodiode array detector (PDA). The detector was set at the respective optimum absorption wavelength for each compound. The system used an Xbridge C18 50 mm × 4.6 mm i.d., 3.5 µm, chromatographic column (Waters). Data acquisition and processing were performed on Waters Millennium software.
The assay was performed according to Chao Liang et al. with modification. […]
Test compound was eluted by all mobile phases. […] The logP value was read from the calibration curve. […]

In another series the target is Aβ(1–42) aggregation (Homo sapiens, UniProt P05067). The series can be described thus: In vitro β-amyloid assay, Thioflavin T fluorescence. The format is biochemical. Conditions: ThT.
Aβ(1–42) aggregation, sequence (P05067 672-713 limits assumed): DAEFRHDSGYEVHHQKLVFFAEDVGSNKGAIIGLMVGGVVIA

By LD50 is commonly meant the dose at which mortality reaches 50%. The inhibition is the percentage by which the read-out fell short of the control. On to `O=C(NCCCCCCNc1c2c(nc3ccccc13)CCC2)c1cc(Cl)cc(Cl)c1` [Compound 3e], for which the mortality result in the series on female mice, Balb/c (300 mg/kg, first and second stages, 3 female Balb/c mice per stage) is on record as “did not cause any death”; in the series with female mice, Balb/c (2000 mg/kg, stage one, 3 mice), “no animal died”; in the series on female mice, Balb/c (2000 mg/kg, stage two, 3 mice), “two died”. Moreover, in the series with female mice, Balb/c (OECD 423), the GHS classification entry is on record as “Category 4 GHS”. For the same molecule, in series [1], the LD50 at 14 days stood at 1000 mg/kg. In “LogP assay (RP-HPLC)”, the chromatographic logP came to 5.44. On Aβ(1–42) aggregation (5 µM compound), this molecule yielded an inhibition at 5 µM of 55.7 ± 4.7%. On Aβ(1–42) aggregation (10 µM compound), this molecule returned an inhibition at 10 µM of 62.7 ± 5.3%. Testing at 25 µM against Aβ(1–42) aggregation (25 µM compound) gave an inhibition of 76.5 ± 3.7%. The inhibition at 50 µM against Aβ(1–42) aggregation (50 µM compound) came out at 79.8 ± 2.9%. Further, at 100 µM the inhibition at Aβ(1–42) aggregation (100 µM compound) was 82.6 ± 1.7%.

The values above are taken from PMC9848259 (Journal of Enzyme Inhibition and Medicinal Chemistry, 2023).
